Assay results from publication PMC7824209, “Bioactive Bis(indole) Alkaloids from a Spongosorites sp. Sponge” (Marine Drugs, 2020).
Values after ≈ are worked out from the molar mass of the structure shown.

Assays:
[1] = test system: Escherichia coli ATCC25922; assay: Antibacterial activity MIC; type: cell-based; conditions: Gram-negative; for MIC: Escherichia coli, read-out: Antibacterial Activity MIC, E. coli
[2] = test system: Salmonella enterica ATCC14028; assay: Antibacterial activity MIC; type: cell-based; conditions: Gram-negative, ATCC14028, read-out: Antibacterial Activity MIC, Salmonella enterica
[3] = test system: S. aureus strain Newman; assay: Antibacterial activity MIC; type: cell-based; conditions: Staphylococcus aureus; Gram-positive; strain Newman; read-out: Antibacterial Activity MIC, S. aureus
[4] = test system: Enterococcus faecium ATCC19434; assay: Antibacterial activity MIC; type: cell-based; conditions: Gram-positive, ATCC19434, read-out: Antibacterial Activity MIC, Enterococcus faecium
[5] = biological target: T1, recombinant SrtA from S. aureus ATCC6538p (Staphylococcus aureus, UniProt Q2FV99); assay: SrtA inhibition assay (fluorescence, dabcyl-LPETG-edans cleavage); type: biochemical
T1 construct: made in house; host or cells: Escherichia coli
T1 sequence (Q2FV99 whole entry): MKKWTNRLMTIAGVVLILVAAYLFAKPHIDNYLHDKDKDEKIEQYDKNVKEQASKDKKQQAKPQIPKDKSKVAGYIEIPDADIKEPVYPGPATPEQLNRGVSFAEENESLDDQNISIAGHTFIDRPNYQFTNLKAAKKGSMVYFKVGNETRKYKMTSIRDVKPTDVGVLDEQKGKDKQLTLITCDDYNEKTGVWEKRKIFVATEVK
From the text: The same bioassays were pursued with the new compounds and the known congeners, with a particular emphasis on SrtA inhibition. The rationale of SrtA inhibition is that this transpeptidase decorates the surfaces of Gram-positive bacteria with a diverse array of proteins that enable microbes to effectively interact with their environment, and it is not required for bacterial growth or viability. It is thus considered a promising target for the development of anti-virulence drugs aimed at interfering with important virulence mechanisms such as adhesion to host tissues. To assess the SrtA inhibitory activity of compounds 1–14, recombinant SrtA derived from S. aureus ATCC6538p was purified from Escherichia coli extracts using metal chelate-affinity chromatography. The enzyme activity was determined from the fluorescence intensity upon cleavage of a peptide substrate containing the LPETG motif.
Before evaluating the SrtA inhibitory activity of the test compounds, recombinant SrtA from S. aureus ATCC6538p was prepared according to methods described in a previous paper. The SrtA inhibitory activity of the test compounds was determined according to previously described methods with minor modifications. The reaction was carried out with 100 μL buffer (50 mM Tris-HCl, 5 mM CaCl2, and 150 mM NaCl, pH 7.5), 7.5 µM synthetic peptide dabcyl-LPETG-edans (AnaSpec, Inc., Fremont, CA, USA), 7.5 µM purified SrtA, and test samples at various concentrations. […] The SrtA inhibition assay was conducted at 37 °C for 1 h, and inhibition was quantified fluorometrically using a microplate reader (FLx800, BioTek Instruments, Winooski, VT, USA) at excitation and emission wavelengths of 350 and 495 nm, respectively. Berberine chloride and triphasiol were used as reference inhibitors of SrtA.

[6] = test system: A549 cell line; assay: MTT cytotoxicity assay; type: cell-based; conditions: Homo sapiens; MTT assay, A549; read-out: IC50 A549
Description: (§1) An MTT assay was performed as previously described to determine the cytotoxicity against A549 and K562 cell lines. These cancer cell lines were purchased from the Korean Cell Line Bank (KCLB), Seoul, Republic of Korea.

[7] = test system: K562 cell line; assay: MTT cytotoxicity assay; type: cell-based; conditions: Homo sapiens; MTT assay, K562; read-out: IC50 K562
Description: as §1

[8] = test system: Klebsiella pneumoniae ATCC10031; assay: Antibacterial activity MIC; type: cell-based; conditions: Gram-negative, ATCC10031, read-out: Antibacterial Activity MIC, Klebsiella pneumonia
[9] = test system: Candida albicans ATCC10231; assay: Antifungal activity MIC; type: cell-based
[10] = test system: Trichophyton rubrum NBRC9185; assay: Antifungal activity MIC; type: cell-based
[11] = test system: Enterococcus faecalis ATCC19433; assay: Antibacterial activity MIC; type: cell-based; conditions: Gram-positive, ATCC19433, read-out: Antibacterial Activity MIC, Enterococcus faecalis
[12] = test system: Aspergillus fumigatus HIC6094; assay: Antifungal activity MIC; type: cell-based
[13] = test system: Trichophyton mentagrophytes IFM40996; assay: Antifungal activity MIC; type: cell-based

SMILES	MIC [1] [µg/mL]	Antibacterial Activity MIC, E. coli [1] [µg/mL]	MIC [2] [µg/mL]	MIC [3] [µg/mL]	MIC [4] [µg/mL]	IC50 [5] [µM]	IC50 [6] [µM]	IC50 [7] [µM]	MIC [8] [µg/mL]	MIC [9] [µg/mL]	MIC [10] [µg/mL]	MIC [11] [µg/mL]	MIC [12] [µg/mL]	MIC [13] [µg/mL]
O=C1NC(c2c[nH]c3cc(Br)ccc23)CN=C1c1c[nH]c2ccccc12 (stereo in doubt) [Compound 11, (R)-6′′-debromohamacanthin A]	> 128	>128	16 (≈ 39.3 µM)	8 (≈ 19.6 µM)	32 (≈ 78.6 µM)	47.5	39.6	> 100	8 (≈ 19.6 µM)	> 128	> 128	32 (≈ 78.6 µM)	> 128	> 128
CO[C@@]1(C(=O)c2c[nH]c3cc(O)ccc23)N=C(c2c[nH]c3ccccc23)C(=O)N1 [Compound 1, spongosoritin A]	> 128	–	> 128	> 128	> 128	> 330	77.3	24.2	> 128	> 128	> 128	> 128	> 128	> 128
CO[C@@]1(C(=O)c2c[nH]c3ccccc23)N=C(c2c[nH]c3ccccc23)C(=O)N1 [Compound 2, spongosoritin B]	> 128	–	128 (≈ 344 µM)	64 (≈ 172 µM)	> 128	62.7	55.7	28.5	128 (≈ 344 µM)	> 128	> 128	> 128	> 128	> 128
CO[C@@]1(C(=O)c2c[nH]c3ccccc23)N=C(c2c[nH]c3cc(Br)ccc23)C(=O)N1 [Compound 3, spongosoritin C]	> 128	–	64 (≈ 142 µM)	32 (≈ 70.9 µM)	> 128	43.9	61.2	37.7	> 128	> 128	> 128	128 (≈ 284 µM)	> 128	> 128
CO[C@@]1(C(=O)c2c[nH]c3cc(O)ccc23)N=C(c2c[nH]c3cc(Br)ccc23)C(=O)N1 [Compound 4, spongosoritin D]	> 128	–	64 (≈ 137 µM)	16 (≈ 34.2 µM)	128 (≈ 274 µM)	> 275	70.9	54.2	> 128	> 128	> 128	128 (≈ 274 µM)	> 128	> 128
O=C(NCC(=O)c1c[nH]c2ccccc12)NC(=O)c1c[nH]c2cc(O)ccc12 [Compound 5, spongocarbamide A]	> 128	–	> 128	> 128	> 128	79.4	> 100	92.8	> 128	> 128	> 128	> 128	> 128	> 128
O=C(NCC(=O)c1c[nH]c2cc(Br)ccc12)NC(=O)c1c[nH]c2cc(O)ccc12 [Compound 6, spongocarbamide B]	> 128	–	128 (≈ 281 µM)	64 (≈ 141 µM)	> 128	52.4	> 100	> 100	> 128	> 128	> 128	> 128	> 128	> 128
O=C(c1nc(-c2c[nH]c3ccccc23)c[nH]1)c1c[nH]c2cc(O)ccc12 [Compound 7, topsentin]	> 128	>128	64 (≈ 187 µM)	32 (≈ 93.5 µM)	64 (≈ 187 µM)	> 374	25.3	15.3	64 (≈ 187 µM)	> 128	> 128	64 (≈ 187 µM)	> 128	> 128
O=C(c1ncc(-c2c[nH]c3ccccc23)[nH]1)c1c[nH]c2cc(Br)ccc12 [Compound 8, isobromodeoxytopsentin]	–	–	–	–	–	41.3	–	–	–	–	–	–	–	–
